In US12195477B2, “Derivative of berberine, and the preparation method and application thereof” (priority 2021, dated 2025):

Legend:
[1] = system: myocardial infarcted mice; test: Mouse model of myocardial infarction (ligation of the left anterior descending coronary artery), cardiac function by ultrasonography; assay type: in vivo, C57BL/6 male mice; conditions: 2 weeks
Source text: The mouse model of myocardial infarction was established by ligation of the left anterior descending branch of the coronary artery. The agent was then administrated to the mice to determine the effect of the test sample on myocardial ischemia, and the effect of the test sample on the cardiac functions of the myocardial infarct mice.
Random grouping: the C57BL/6 mice were randomly divided into 5 groups, namely the sham-operation group, the myocardial infarction group, the berberine group (berberine at a dosage of 40 mg/kg·d^−1), the test compound group (brominated 9-O-propyl berberine thiazole formate at a dosage of 40 mg/kg·d^−1) and the positive control group (sacubitril and valsartan sodium at a dosage of 26 mg/kg·d^−1).
The mouse model of myocardial ischemia was established by ligation of the left anterior descending branch of the coronary artery. Healthy male C57BL/6 mice (28±2 g) were anesthetized by intraperitoneal injection of aphrodin (0.2 g/kg). The anesthetic mice were placed in a supine position on the operation desk with the trachea connected to a ventilator by inserting a tracheal tube. An incision of about 0.5˜4.0 cm was made on the skin of the left chest from the upper left to the lower right. Pectoralis minor and serratus anterior were separated. The intercostal muscle was bluntly separated between the fourth and fifth rib, and the heart was slightly squeezed out.
Except for the sham-operation group, coronary artery ligation was performed to all other mice. The mice were randomly divided into 4 groups 24 hours after ligation, including the myocardial infarction group, the berberine group, the brominated 9-O-propyl berberine thiazole formate group and the positive control group. Blank solvent, berberine, brominated 9-O-propyl berberine thiazole formate and positive control sacubitril and valsartan sodium were administrated to the mice by gavage (as shown in Table 1) for consecutive 14 days. […]
The Experiment data were expressed as mean±standard error. […] All experiment results were statistically analyzed by Graphpad Prism 8.0.

[2] = system: primary cardiac cells from neonatal mice after H2O2 treatment; test: SOD in H2O2-injured primary cardiac cells (WST-1 assay); assay type: cell-based
Method: Dismutation of superoxide anion can be catalyzed by superoxide dismutase (SOD) to give hydrogen peroxide and oxygen. SOD is a kind of important antioxidases in organisms. SOD plays a vital role in the equilibrium between oxidation and anti-oxidation in organisms. SOD is able to scavenge superoxide anion free radicals and protect cells from injuries. In this test, the SOD activity was determined using WST-1 assay.
(§1) After disinfecting the neonatal mice (within 3 days after birth) by alcohol, the skin and sternum of the left chest were cut off at one time using a scissor. The heart was then squeezed out, taken and put into a pre-cooled FBS-free DMEM culture medium with a curved forceps. The blood vessels on the surface of heart, the residual blood and the attached lung tissue were removed. The heart tissue was cut into pieces with homogeneous size. The heart pieces were drawn into a 15 ml centrifuge tube, and the supernatant was discarded. The tissue was rinsed by PBS for 2-3 times. The trypsinization solution was added at equivalent volume of the heart tissue. The centrifuge tube was kept shaken to accelerate digestion. After the solution become turbid, the digestion was stopped by transferring the solution to DMEM culture medium. After the digestion of all heart tissues was completed, the digest was filtered by a sieve, and centrifuged at 1500 rpm for 5 min. […]
(§2) After digestion, the primary cardiac cells from neonatal mice were re-suspended into a 6-well plate at a appropriate concentration with volume of 2 mL for each well. […] The activity of SOD and the content of ATP in the cells were determined according to the instruction provided in the SOD and ATP detection kit, respectively. […]
(§3) The experiment data were expressed as mean±standard error. The SOD and ATP content in the cells in each group were analyzed by One-way ANOVA, with P<0.05 indicating a significant difference. All experiment results were statistically analyzed and plotted using Graphpad Prism 8.0.

[3] = system: primary cardiac cells from neonatal mice; test: Cytotoxicity test, CCK-8 assay; assay type: cell-based; conditions: 24 hours
Source text: The toxicity of the novel compound, brominated 9-O-propyl berberine thiazole formate, on the primary cardiac cells from neonatal mice was detected using CCK-8 assay. The CCK-8 agent contains WST-8, which has the chemical name: 2-(2-methoxy-4-nitrophenyl)-3-(4-nitrophenyl)-5-(2,4-disulfophenyl)-2H-tetrazolium sodium salt. It can be reduced to yellow formazan with high water solubility by the dehydrogenase existing in the mitochondrion in a cell in the presence of electron carrier 1-methoxy-5-methylphenazinium methyl sulfate (1-Methoxy PMS). The amount of formazan generated is proportional to the number of live cells. The absorbance is detected at a wavelength of 450 nm by an enzyme-linked immunosorbent assay, which represents the number of live cells, in which a larger value indicates a higher cell activity. […]
After digestion, the primary cardiac cells from neonatal mice were re-suspended into a 96-well plate at a appropriate concentration with volume of 100 μl for each well. […] After incubation at 37° C. for 1-4 hours, the mixture was placed in a micro-plate reader and shaken for 10 s. The absorbance at 450 nm (OD450) was recorded.
The relative inhibition rate of the compound at various concentrations on the primary cardiac cells from neonatal mice was calculated based on the equation: cell inhibition rate (%)=(1−OD450 of the sample group/OD450 of the control group)*100. […]

[4] = system: primary cardiac cells from neonatal mice after H2O2 treatment; test: ATP in H2O2-injured primary cardiac cells (luciferase kit); assay type: cell-based
Source text: A kit has been used in this study, based on that ATP is demanded to provide energy during the fluorescence production by the fluorescein catalyzed by the firefly luciferase (also termed as luciferase). When both luciferase and fluorescein are excessive, in a certain concentration range, the fluorescence generated is proportional to the concentration of ATP. That is, the concentration of ATP in the solution can be detected sensitively.
as §1, §2, §3

[5] = 40 mg/kg gavage once per day, ##P<0.01
[6] = vs. the model group, among 1, 2.5 and 5 μM, H2O2 100 μM

With `COc1ccc2cc3[n+](cc2c1OCCCOC(=O)c1cscn1)CCc1cc2c(cc1-3)OCO2.[Br-]` [9-(3-((thiazole-4-carbonyl)oxy)propoxy)-10-methoxy-5,6-dihydro-[1,3]dioxolo[4,5-g]isoquinolino[3,2-a]isoquinolin-7-ium bromide] the “ejection fraction (EF) vs. the myocardial infarction group” value [1, 5] was “significantly increased”, the “fraction shortening (FS) vs. the myocardial infarction group” value [1, 5] was “significantly increased” and the “effect on EF and FS compared with berberine” value ([1]; both 40 mg/kg gavage, &P<0.05 vs. the berberine group) was “better than that of the berberine”. The “SOD content vs. the model group” value ([2]; 1, 2.5 and 5 μM, H2O2 100 μM, 24 hours, #P<0.05, ###P<0.001) was “increased”, the “SOD effect compared with berberine” value ([2]; same concentration (5 μM), &P<0.05) was “apparently better than the effect of berberine at the same concentration” and the “highest enhancement of the SOD content” value [2, 6] was 43.4%. For the same molecule, the inhibition at 1000 µM ([3]; Mus musculus, 1000 μM, CCK-8, OD450, read-out: cell inhibition rate) was 41%, the “toxicity on primary cardiac cells” value ([3]; concentration range tested 0.1-1000 μM) was “low toxicity” and the “ATP content vs. the model group” value ([4]; 1, 2.5 and 5 μM, H2O2 100 μM, 24 hours, ##P<0.01, ###P<0.001) was “increased”. For the same molecule, the “ATP effect compared with berberine” value ([4]; same concentration (5 μM), &&P<0.01) was “apparently better than the effect of berberine at the same concentration” and the “highest enhancement of the ATP content” value [4, 6] was 59.1%.
